# In patent publication US6514709B1, “High throughput screening by measurement of intracellular calcium levels” (Merck & Co., Inc., priority 2000, dated 2003):
# What was measured:
# Format in all cases: cell-based
# [1] = target: T1, endogenous muscarinic receptor (Homo sapiens, UniProt P20309); experiment: Fluo-4 fluorescence calcium response in HEK-AEQ17 cells (VIPR); settings: 3 μM BAPTA-AM, muscimol (10 μM)
# T1 construct: stimulated an endogenous muscarinic receptor; endogenous in cells; host or cells: parental HEK293 apoaequorin cells (293AEQ17 / HEK-AEQ17)
# Method: The VIPR instrument was used to add agonist (in 100 μl enriched-PBS) after recording a 10 sec. baseline and the fluorescence was measured for up to 300 sec.
# Muscimol stimulated an endogenous muscarinic receptor (Moriya, H., Takagi, Y., Nakanishi, T., Hayashi, M., Tani, T., and Hirotsu, I. (1999) Affinity profiles of various muscarinic antagonists for cloned human muscarinic acetylcholine receptor (MACHR) subtypes and MACHRS in rat heart and submandibular gland. Life Sciences 25 2351-2358; Caulfield, M. P. (1993) Muscarinic receptors-characterization, coupling and function. Pharmac. Ther. 58, 319-379)in HEK-AEQ17 cells which gave a robust fluorescence signal when measured with fluo-4 using the VIPR. The kinetics of this calcium transient was different from that measured for either the VR1 or hGHSR1a calcium transient. Activation with muscimol (10 μM) caused a fast transient response, followed by a slower response (FIG. 9A). The fast transient response was very sensitive to BAPTA, and was eliminated by low levels of the chelator (3 μM BAPTA-AM), but a fluorescence signal could be detected under these conditions that was stable for at least 3 minutes. At a higher BAPTA concentration (10 μM BAPTA-AM), the increase in fluorescence was very slow and had not yet stabilized even after 3 minutes.
# [2] = target: T2, rat VR1 capsaicin receptor (Rattus norvegicus, UniProt O35433); experiment: Aequorin luminescence in VR1 cells (WALLAC MICROBETA JET)
# T2 construct: expressed in transfected cells
# Method: Parental HEK293 cell lines expressing apoaequorin (293AEQ17 cells) were used to develop stable clonal cell lines expressing the rat VR1 capsaicin receptor. The VR1 293AEQ17 were maintained on growth media containing DMEM (GIBCOBRL, high glucose, with L-glutamine, with 110 mg/L sodium pyruvate, with pyridoxine HCl), 25 mM HEPES (GIBCOBRL, 1M stock), 0.5 mg/mL geneticin (GIBCOBRL, 50 mg/mL stock), 1 μg/mL puromycin (CLONTECH), and 10% fetal bovine serum (GEMINI BIO-PRODUCTS, heat inactivated) at 37° C., 10% CO^2.
# Cells were grown to 80-95% confluence in tissue culture flasks (T-225, Corning) and harvested by trypsinization (Trypsin/EDTA, GIBCOBRL). Cells were dispensed (about 1×10^5 cells/0.2 ml/well) into 96-well white clear-bottom BIOCOAT poly-D-lysine plates (BECTON DICKENSON, Bedford, Mass.) in growth media and incubated overnight at 37° C. in a humidified incubator at 10% CO^2. Cells were charged with the aequorin substrate, coelenterazine h (MOLECULAR PROBES, #C-6780), by removing the growth media and incubating the cells with 75 μl of charge buffer (DMEM GIBCOBRL #12320-032; 0.1% FBS GEMINI BIO-PRODUCTS, Inc. #100-107;5 μM coelenterazine h; 30 μM reduced glutathione) for 2 hours at 37° C., 10% CO^2. The charge buffer was then removed and the cells were washed twice with 100 μl of enriched-PBS (pH 7.2) and then incubated with 100 μl of enriched-PBS supplemented with 0-30 μM BAPTA-AM for 30-120 min at 37° C., 10% CO^2. The cells were then washed and loaded with […] of enriched-PBS with or without the indicated antagonist. The calcium response was initiated by addition of 100 μl of the indicated concentration of capsaicin (SIGMA #M2028) to the wells by a WALLAC MICROBETA JET. In order to obtain more consistent kinetics, the Jet was set to simultaneously read only six wells per determination.
# For these experiments, the kinetics of the flash luminescence were followed using a WALLAC MICROBETA JET luminometer that injects reagent and records light emission from six wells of a 96-well plate simultaneously.
# [3] = target: T3, human growth hormone secretagogue receptor type 1a (hGHSR1A) (Homo sapiens, UniProt Q92847); experiment: Fluo-4 fluorescence calcium response in hGHSR1a cells (VIPR); settings: 30 μM BAPTA-AM, 100 nM ghrelin
# T3 construct: expressed in transfected cells
# Method: Cells were grown to 80-95% confluence in tissue culture flasks (T-225, Corning) and harvested by trypsinization (Trypsin/EDTA, GIBCOBRL). Cells were dispensed (about 1×10^5 cells/0.2 ml/well) into 96-well black clear-bottom BIOCOAT poly-D-lysine plates (BECTON DICKENSON, Bedford, Mass.) in growth media and incubated overnight at 37° C. in a humidified incubator at 10% CO^2. […] Wells were washed two times with 100 μl of enriched-PBS, and then 100 μl enriched-PBS with or without antagonist was added for 15-30 minutes prior to assay on the AURORA fluorescence plate reader VIPR (ex. 480 nm, em. 535 nm). […] The VIPR instrument was used to add agonist (in 100 μl enriched-PBS) after recording a 10 sec. baseline and the fluorescence was measured for up to 300 sec.
# [4] = target: T3, human growth hormone secretagogue receptor type 1a (hGHSR1A); experiment: Aequorin luminescence in hGHSR1A cells (WALLAC MICROBETA JET); settings: 30 μM BAPTA-AM, 100 nM ghrelin
# Method: Cells were charged with the aequorin substrate, coelenterazine h (MOLECULAR PROBES, #C-6780), by removing the growth media and incubating the cells with 75 μl of charge buffer (DMEM GIBCOBRL#12320-032; 0.1% FBS GEMINI BIO-PRODUCTS, Inc. #100-107; 5 μM coelenterazine h; 30 μM reduced glutathione) for 2 hours at 37° C., 10% CO^2. […] The cells were then washed and loaded with 100 μl of enriched-PBS with or without the indicated antagonist. […] In order to obtain more consistent kinetics, the Jet was set to simultaneously read only six wells per determination.
# [5] = tested on: ligand-gated calcium channel; experiment: Model aequorin-based functional cellular assay for a ligand-gated calcium channel; settings: BAPTA-AM 0-30 uM, after injection of agonist
# Method: For this assay, HEK293 cells co-expressing the receptor of interest and apoaequorin were grown to confluence in BIOCOAT poly-D-lysine opaque white 96-well microtiter plates (BECTON DICKINSON). The cells were maintained on a standard growth media. The cells were charged with growth media supplemented with 5 uM of coelenterazine h (MOLECULAR PROBES, Eugene, Oreg.) for 2 hr at 37° C. in a humidified incubator at 5% CO2. The charged cells were then washed and loaded with assay buffer.
# Addition of agonist caused the rapid and transient luminescent signal that was complete within 10-15 seconds (FIG. 1). The kinetics of the flash luminescent signal was followed by using a WALLAC MICROBETA JET instrument where agonist was injected directly into the wells containing the charged cells. As a buffering reagent the cell permeable acetoxymethyl ester BAPTA-AM was used. BAPTA is a specific calcium chelator that rapidly binds and releases calcium. […] A schematic representation of this assay appears in FIG. 2.
# The addition of increasing levels of BAPTA-AM (0-30 uM) caused an initial delay in the aequorin-based luminescence signal upon injection of agonist and extended the signal far greater than 30 seconds (FIG. 1). The addition of a known receptor antagonist was able to completely block the signal (FIG. 3).
# T2 sequence (O35433 whole entry): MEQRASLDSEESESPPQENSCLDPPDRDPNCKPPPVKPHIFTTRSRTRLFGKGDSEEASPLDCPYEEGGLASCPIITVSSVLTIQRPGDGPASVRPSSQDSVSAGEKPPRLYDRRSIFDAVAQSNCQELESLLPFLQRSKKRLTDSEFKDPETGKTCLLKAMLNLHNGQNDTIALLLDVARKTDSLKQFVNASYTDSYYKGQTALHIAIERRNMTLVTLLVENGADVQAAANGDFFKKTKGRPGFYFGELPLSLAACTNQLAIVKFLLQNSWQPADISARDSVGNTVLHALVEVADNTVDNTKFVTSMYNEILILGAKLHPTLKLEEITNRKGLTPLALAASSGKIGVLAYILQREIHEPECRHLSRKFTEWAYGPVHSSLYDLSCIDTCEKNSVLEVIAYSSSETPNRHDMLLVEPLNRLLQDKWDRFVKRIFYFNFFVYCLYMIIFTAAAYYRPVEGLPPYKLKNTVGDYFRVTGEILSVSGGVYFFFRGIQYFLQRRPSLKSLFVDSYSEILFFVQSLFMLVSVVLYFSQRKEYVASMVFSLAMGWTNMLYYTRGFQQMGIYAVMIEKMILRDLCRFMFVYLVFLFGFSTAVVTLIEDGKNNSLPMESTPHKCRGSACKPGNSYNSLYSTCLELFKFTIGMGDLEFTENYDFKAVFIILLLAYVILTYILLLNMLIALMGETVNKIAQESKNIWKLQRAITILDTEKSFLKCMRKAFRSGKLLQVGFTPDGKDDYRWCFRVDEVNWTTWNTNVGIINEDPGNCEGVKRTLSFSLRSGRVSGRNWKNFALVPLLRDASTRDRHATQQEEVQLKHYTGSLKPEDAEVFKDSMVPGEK
# T3 sequence (Q92847 whole entry): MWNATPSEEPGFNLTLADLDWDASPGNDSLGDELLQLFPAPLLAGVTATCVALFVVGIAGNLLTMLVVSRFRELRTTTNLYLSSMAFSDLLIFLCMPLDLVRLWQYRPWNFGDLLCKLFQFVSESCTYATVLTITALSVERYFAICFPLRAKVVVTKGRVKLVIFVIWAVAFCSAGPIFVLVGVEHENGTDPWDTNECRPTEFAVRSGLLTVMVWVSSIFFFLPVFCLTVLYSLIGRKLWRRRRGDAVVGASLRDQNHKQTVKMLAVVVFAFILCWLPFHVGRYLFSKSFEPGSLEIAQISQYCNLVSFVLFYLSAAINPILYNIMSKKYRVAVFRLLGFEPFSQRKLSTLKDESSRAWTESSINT
# T1 sequence (P20309 whole entry): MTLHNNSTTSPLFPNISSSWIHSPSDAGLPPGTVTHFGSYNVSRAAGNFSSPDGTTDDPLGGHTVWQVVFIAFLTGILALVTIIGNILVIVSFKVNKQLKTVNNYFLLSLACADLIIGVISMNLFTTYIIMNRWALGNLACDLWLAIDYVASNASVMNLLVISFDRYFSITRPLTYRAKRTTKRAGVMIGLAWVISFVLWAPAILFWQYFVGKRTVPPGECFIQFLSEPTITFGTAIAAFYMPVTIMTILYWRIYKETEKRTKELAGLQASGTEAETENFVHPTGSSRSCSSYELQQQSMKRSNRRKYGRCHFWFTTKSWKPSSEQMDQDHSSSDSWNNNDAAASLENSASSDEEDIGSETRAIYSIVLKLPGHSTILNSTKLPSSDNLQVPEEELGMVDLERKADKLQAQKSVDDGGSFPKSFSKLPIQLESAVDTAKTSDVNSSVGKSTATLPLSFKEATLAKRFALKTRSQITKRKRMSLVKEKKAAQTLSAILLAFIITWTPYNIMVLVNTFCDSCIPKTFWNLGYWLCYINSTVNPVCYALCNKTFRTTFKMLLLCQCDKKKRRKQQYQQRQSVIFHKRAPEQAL
smiles,measurement,setting,value
"CC(=O)OCOC(=O)CN(CC(=O)OCOC(C)=O)c1ccccc1OCCOc1ccccc1N(CC(=O)OCOC(C)=O)CC(=O)OCOC(C)=O [BAPTA-AM, 1,2-bis(o-aminophenoxy)ethane-N,N,N′,N′-tetraacetic acid tetra(acetoxymethyl)ester]",duration of stable fluorescence signal,[1],at least 3 minutes
same,effect on fast transient response,[1],eliminated
same,total signal at a given agonist concentration,[2]; 0 μM to 30 μM BAPTA-AM,did not significantly vary
same,time to peak response,"[2]; 30 μM BAPTA-AM, 0.5 μM capsaicin",10 s
same,duration of extended luminescence signal,"[2]; BAPTA-AM 0-30 μM, 50 nM capsaicin, maximum time recorded",up to 3 minutes
same,time of maximum luminescence response,"[2]; increasing BAPTA-AM 0-30 μM, 50 nM capsaicin",30 s
same,duration of stable fluorescent signal,[3],up to 5 minutes
same,time to peak fluorescence response,[3],150 s
same,luminescence signal relative to the response in the absence of BAPTA,[4],about 5%
same,time to reach the maximum light emission,[4],75 s
same,duration of extended luminescence signal,[5],greater than 30 seconds
